In patent US20260274785A1, “CYCLOHEXYL OR HETEROCYCLOALKYL BETA-HYDROXY ALKYL AMINES FOR USE IN THE TREATMENT OF HYPERGLYCAEMIA AND DISORDERS CHARACTERISED BY HYPERGLYCAEMIA” (ATROGI AB, priority 2023, published 2026):
Structures can show the parent of a compound that is named as a salt.

Columns and labels:
[1] = test system: L6-myotubes; assay: Glucose uptake (3H-2-deoxyglucose) in differentiated L6-myotubes; format: cell-based; conditions: agonist final concentration 1×10^−5 M, 3H-2-deoxyglucose uptake, read-out: Biological example 1: glucose uptake, activity compared to that of isoproterenol
Protocol: (§1) L6-myoblasts were grown in Dulbecco's Modified Eagle's Medium (DMEM) containing 1 g/L glucose supplemented with 10% fetal bovine serum, 2 mM L-Glutamine, 50 U/mL penicillin, 50 μg/mL streptomycin and 10 mM HEPES. Cells were plated at 1×10^5 cells per mL in 24-well plates. After reaching 90% confluence the cells were grown in medium containing 2% FBS for 7 days where upon cells differentiated into myotubes.
Differentiated L6-myotubes were serum-starved overnight in medium containing 0.5% fatty-acid free BSA and stimulated with an agonist, with a final concentration of 1×10^−5 M. After 1 h 40 min the cells were washed with warm glucose free medium or PBS twice and another portion of agonist was added to the glucose free medium. After 20 min the cells were exposed to 50 nM ^3H-2-deoxyglucose for another 10 min before washed in ice cold glucose free medium or PBS three times and lysed in 400 μL/well 0.2 M NaOH for 1 h at 60° C. The cell lysate was mixed with 4 mL scintillation buffer (Emulsifier Safe, Perkin Elmer) and the radioactivity was detected in a β-counter (Tri-Carb 4810TR, Perkin Elmer). The activity for each compound is compared to that of isoproterenol.

[2] = test system: L6-myotubes; assay: Measurement of intracellular cAMP levels in differentiated L6 cells; format: cell-based; conditions: Rattus norvegicus, 0.25 h, agonist final concentration 1×10^−5 M, 15 min, alpha screen cAMP kit, read-out: Biological example 2: intracellular cAMP levels, activity compared to that of isoproterenol
Protocol: as §1
Differentiated cells were serum-starved overnight and stimulated with an agonist, final concentration 1×10^−5 M, for 15 min in stimulation buffer (HBSS supplemented with 1% BSA, 5 mM HEPES and 1 mM IBMX, pH 7.4). The medium was aspirated and 100 μL of 95% EtOH was added to each well of the 24-well plate and cells were kept at −20° C. overnight. The EtOH was allowed to evaporate and 500 μL of lysis buffer (1% BSA, 5 mM HEPES and 0.3% Tween-20, pH 7.4) was added to each well. The plate was kept at −80° C. for 30 min and then at −20° C. until the day of detection when the samples were thawed. Intracellular cAMP levels were detected using an alpha screen cAMP kit (6760635D from Perkin Elmer). The activity for each compound is compared to that of isoproterenol.

| Compound | Emax at 10 µM [1] [%] | Emax at 10 µM [2] [%] |
| --- | --- | --- |
| CC(=O)NC(C)(C)C[C@H]1CC[C@@H](NC[C@H](O)c2cccc(F)c2)CC1 [Example 1, N-(1-((cis)-4-(((R)-2-(3-Fluorophenyl)-2-hydroxyethyl)amino)-cyclohexyl)-2-methylpropan-2-yl)acetamide] | 50 to 75 | < 25 |
| CC(C)(C[C@H]1CC[C@@H](NC[C@H](O)c2cccc(F)c2)CC1)NS(C)(=O)=O [Example 2, N-(1-((cis)-4-(((R)-2-(3-fluorophenyl)-2-hydroxyethyl)amino)-cyclohexyl)-2-methylpropan-2-yl)methanesulfonamide] | < 25 | < 25 |
| CC(=O)NC(C)(C)C[C@H]1CC[C@@H](NC[C@H](O)c2cncc(F)c2)CC1 [Example 3, N-(1-((cis)-4-(((R)-2-(5-Fluoropyridin-3-yl)-2-hydroxyethyl)amino)-cyclohexyl)-2-methylpropan-2-yl)acetamide] | > 75 | < 25 |
| CC(C)(C[C@H]1CC[C@@H](NC[C@H](O)c2cncc(F)c2)CC1)NS(C)(=O)=O [Example 4, N-(1-((cis)-4-(((R)-2-(5-Fluoropyridin-3-yl)-2-hydroxyethyl)amino)-cyclohexyl)-2-methylpropan-2-yl)methanesulfonamide] | 50 to 75 | < 25 |
| CC(=O)N1CCC(C)(NC[C@H](O)c2cccc(F)c2)CC1 [Example 5, (R)-1-(4-((2-(3-Fluorophenyl)-2-hydroxyethyl)amino)-4-methyl-piperidin-1-yl)ethan-1-one] | 25 to 50 | < 25 |
| CC1(NC[C@H](O)c2cccc(F)c2)CCN(S(C)(=O)=O)CC1 [Example 6, (R)-1-(3-Fluorophenyl)-2-((4-methyl-1-(methylsulfonyl)piperidin-4-yl)-amino)ethan-1-ol] | > 75 | < 25 |
| CC(=O)N1CCC(C)(NC[C@H](O)c2cncc(F)c2)CC1 [Example 7, (R)-1-(4-((2-(5-Fluoropyridin-3-yl)-2-hydroxyethyl)amino)-4-methyl-piperidin-1-yl)ethan-1-one] | 50 to 75 | < 25 |
| CC1(NC[C@H](O)c2cncc(F)c2)CCN(S(C)(=O)=O)CC1 [Example 8, (R)-1-(5-Fluoropyridin-3-yl)-2-((4-methyl-1-(methylsulfonyl)piperidin-4-yl)amino)ethan-1-ol dihydrochloride] | > 75 | 25 to 50 |
| CCOC(=O)CO[C@H]1CC[C@H](NC[C@H](O)c2cccc(F)c2)CC1 [Example 9, Ethyl 2-(((trans)-4-(((R)-2-(3-fluorophenyl)-2-hydroxyethyl)amino)-cyclohexyl)oxy)acetate] | 25 to 50 | < 25 |
| O=C(O)CO[C@H]1CC[C@H](NC[C@H](O)c2cccc(F)c2)CC1 [Example 10, 2-(((trans)-4-(((R)-2-(3-Fluorophenyl)-2-hydroxyethyl)amino)-cyclohexyl)oxy)acetic acid] | 25 to 50 | < 25 |
| CC(=O)N[C@H]1CC[C@@H](NC[C@H](O)c2cccc(F)c2)CC1 [Example 11, N-((cis)-4-(((R)-2-(3-fluorophenyl)-2-hydroxyethyl)amino)-cyclohexyl)acetamide] | 50 to 75 | < 25 |
| CC(=O)N[C@H]1CC[C@@H](NC[C@H](O)c2cncc(F)c2)CC1 [Example 12, N-((cis)-4-(((R)-2-(5-Fluoropyridin-3-yl)-2-hydroxyethyl)amino)-cyclohexyl)acetamide] | > 75 | < 25 |
| CS(=O)(=O)N[C@H]1CC[C@@H](NC[C@H](O)c2cccc(F)c2)CC1 [Example 13, N-((cis)-4-(((R)-2-(3-Fluorophenyl)-2-hydroxyethyl)amino)cyclohexyl)-methanesulfonamide hydrochloride] | 50 to 75 | < 25 |
| CS(=O)(=O)N[C@H]1CC[C@@H](NC[C@H](O)c2cncc(F)c2)CC1 [Example 14, N-((cis)-4-(((R)-2-(5-Fluoropyridin-3-yl)-2-hydroxyethyl)amino)-cyclohexyl)methanesulfonamide] | > 75 | < 25 |
| CC(=O)N[C@H]1CC[C@H](NC[C@H](O)c2cccc(F)c2)CC1 [Example 15, N-((trans)-4-(((R)-2-(3-Fluorophenyl)-2-hydroxyethyl)amino)-cyclohexyl)acetamide] | 25 to 50 | < 25 |
| CC(=O)N[C@H]1CC[C@H](NC[C@H](O)c2cncc(F)c2)CC1 [Example 16, N-((trans)-4-(((R)-2-(5-Fluoropyridin-3-yl)-2-hydroxyethyl)amino)-cyclohexyl)acetamide] | 25 to 50 | < 25 |
| CS(=O)(=O)N[C@H]1CC[C@H](NC[C@H](O)c2cccc(F)c2)CC1 [Example 17, N-((trans)-4-(((R)-2-(3-Fluorophenyl)-2-hydroxyethyl)amino)-cyclohexyl)methanesulfonamide] | 50 to 75 | < 25 |
| CS(=O)(=O)N[C@H]1CC[C@H](NC[C@H](O)c2cncc(F)c2)CC1 [Example 18, N-((trans)-4-(((R)-2-(5-fluoropyridin-3-yl)-2-hydroxyethyl)amino)-cyclohexyl)methanesulfonamide] | 50 to 75 | < 25 |
| COC(=O)CN1CCC(C)(NC[C@H](O)c2cccc(F)c2)CC1 [Example 19, Methyl (R)-2-(4-((2-(3-fluorophenyl)-2-hydroxyethyl)amino)-4-methyl-piperidin-1-yl)acetate dihydrochloride] | > 75 | > 75 |
| CC1(NC[C@H](O)c2cccc(F)c2)CCN(CC(=O)O)CC1 [Example 20, (R)-2-(4-((2-(3-Fluorophenyl)-2-hydroxyethyl)amino)-4-methyl-piperidin-1-yl)acetic acid acetate] | 50 to 75 | < 25 |
| COC(=O)CS(=O)(=O)N1CCC(C)(NC[C@H](O)c2cccc(F)c2)CC1 [Example 21, Methyl (R)-2-((4-((2-(3-fluorophenyl)-2-hydroxyethyl)amino)-4-methylpiperidin-1-yl)sulfonyl)acetate hydrochloride] | > 75 | 25 to 50 |
| CC1(NC[C@H](O)c2cccc(F)c2)CCN(S(=O)(=O)CC(=O)O)CC1 [Example 22, (R)-2-((4-((2-(3-Fluorophenyl)-2-hydroxyethyl)amino)-4-methyl-piperidin-1-yl)sulfonyl)acetic acid] | > 75 | < 25 |
| CCCCS(=O)(=O)N1CCC(C)(NC[C@H](O)c2cccc(F)c2)CC1 [Example 23, (R)-2-((1-(Butylsulfonyl)-4-methylpiperidin-4-yl)amino)-1-(3-fluoro-phenyl)ethan-1-ol acetate] | > 75 | 25 to 50 |
| CN(C)C(=O)N1CCC(C)(NC[C@H](O)c2cccc(F)c2)CC1 [Example 24, (R)-4-((2-(3-Fluorophenyl)-2-hydroxyethyl)amino)-N,N,4-trimethyl-piperidine-1-carboxamide acetate] | > 75 | – |
